Source: US20100069317A1, “CRYSTALLINE NEMORUBICIN HYDROCHLORIDE” (NERVIANO MEDICAL SCIENCES S.R.L., priority 2006, published 2010)

Experiments:
[1] = Hygroscopicity, dynamic water vapour sorption (DVS 1000); format: physicochemical; conditions: for Change In Mass (%): 25° C.; for hygroscopicity (in words): when exposed to humidity
Experimental: Hygroscopicity tests were performed by means of a DVS 1000 apparatus (SMS) allowing dynamic water vapour sorption analysis. Multiple sorption/desorption cycles between 0% and 90% RH were performed at 25° C.
The equipment is a “controlled atmosphere microbalance” where the weighed sample is exposed to controlled variations of the relative humidity (RH) at a constant temperature.

[2] = in the presence of mouse, rat and human liver microsomes; cited from earlier work
[3] = test system: liver metastases from M5076 murine fibrosarcoma; conditions: oral administration; cited from earlier work
[4] = test system: experimental tumors (animal models); conditions: cited from earlier work
[5] = test system: tumor cells resistant to alkylating agents or topoisomerase II inhibitors; conditions: cells resistant to alkylating agents (melphalan, cisplatin) or topoisomerase II inhibitors (etoposide); cited from earlier work

COc1cccc2c1C(=O)c1c(O)c3c(c(O)c1C2=O)C[C@@](O)(C(=O)CO)C[C@@H]3O[C@H]1C[C@H](N2CCO[C@H](OC)C2)[C@H](O)[C@H](C)O1.Cl [Amorphous, (8S-cis,2″S)-7,8,9,10-tetrahydro-6,8,11-trihydroxy-8-(hydroxyacetyl)-1-methoxy-10-{[2,3,6-trideoxy-3-(2-methoxy-4-morpholinyl)-α-L-lyxo-hexopyranosyl]oxy}-5,12-naphthacenedione hydrochloride]
Change In Mass (%) ([1]; Relative Humidity 3.1%, hydrochloride): 0.30% | Change In Mass (%) ([1]; Relative Humidity 6.2%, hydrochloride): 0.83% | Change In Mass (%) ([1]; Relative Humidity 9.3%, hydrochloride): 1.35% | Change In Mass (%) ([1]; Relative Humidity 12.4%, hydrochloride): 1.93% | Change In Mass (%) ([1]; Relative Humidity 15.5%, hydrochloride): 2.45% | Change In Mass (%) ([1]; Relative Humidity 18.6%, hydrochloride): 2.92% | Change In Mass (%) ([1]; Relative Humidity 21.7%, hydrochloride): 3.37% | Change In Mass (%) ([1]; Relative Humidity 24.8%, hydrochloride): 3.79% | Change In Mass (%) ([1]; Relative Humidity 27.9%, hydrochloride): 4.19% | Change In Mass (%) ([1]; Relative Humidity 31.0%, hydrochloride): 4.62% | Change In Mass (%) ([1]; Relative Humidity 34.1%, hydrochloride): 5.08% | Change In Mass (%) ([1]; Relative Humidity 37.2%, hydrochloride): 5.52% | Change In Mass (%) ([1]; Relative Humidity 40.3%, hydrochloride): 5.96% | Change In Mass (%) ([1]; Relative Humidity 43.5%, hydrochloride): 6.43% | Change In Mass (%) ([1]; Relative Humidity 46.6%, hydrochloride): 6.90% | Change In Mass (%) ([1]; Relative Humidity 49.7%, hydrochloride): 7.37% | Change In Mass (%) ([1]; Relative Humidity 52.8%, hydrochloride): 7.88% | Change In Mass (%) ([1]; Relative Humidity 55.9%, hydrochloride): 8.36% | Change In Mass (%) ([1]; Relative Humidity 59.0%, hydrochloride): 8.92% | Change In Mass (%) ([1]; Relative Humidity 62.1%, hydrochloride): 9.46% | Change In Mass (%) ([1]; Relative Humidity 65.2%, hydrochloride): 10.10% | Change In Mass (%) ([1]; Relative Humidity 68.3%, hydrochloride): 10.85% | Change In Mass (%) ([1]; Relative Humidity 71.4%, hydrochloride): 11.69% | Change In Mass (%) ([1]; Relative Humidity 74.5%, hydrochloride): 12.67% | Change In Mass (%) ([1]; Relative Humidity 77.6%, hydrochloride): 14.01% | Change In Mass (%) ([1]; Relative Humidity 80.7%, hydrochloride): 15.76% | Change In Mass (%) ([1]; Relative Humidity 83.8%, hydrochloride): 18.09% | Change In Mass (%) ([1]; Relative Humidity 86.9%): 21.51% | Change In Mass (%) ([1]; Relative Humidity 90.0%, hydrochloride): 26.66% | hygroscopicity (in words) ([1]; listed as nemorubicin amorphous, hydrochloride): highly hygroscopic

COc1cccc2c1C(=O)c1c(O)c3c(c(O)c1C2=O)C[C@@](O)(C(=O)CO)C[C@@H]3O[C@H]1C[C@H](N2CCO[C@H](OC)C2)[C@H](O)[C@H](C)O1.Cl [Form A, nemorubicin hydrochloride dihydrate]
Change In Mass (%) ([1]; Relative Humidity 0.0%): 0.00% | Change In Mass (%) ([1]; Relative Humidity 3.1%, hydrochloride dihydrate): 1.92% | Change In Mass (%) ([1]; Relative Humidity 6.2%, hydrochloride dihydrate): 3.53% | Change In Mass (%) ([1]; Relative Humidity 9.3%, hydrochloride dihydrate): 3.82% | Change In Mass (%) ([1]; Relative Humidity 12.4%, hydrochloride dihydrate): 4.02% | Change In Mass (%) ([1]; Relative Humidity 15.5%, hydrochloride dihydrate): 4.17% | Change In Mass (%) ([1]; Relative Humidity 18.6%, hydrochloride dihydrate): 4.29% | Change In Mass (%) ([1]; Relative Humidity 21.7%, hydrochloride dihydrate): 4.39% | Change In Mass (%) ([1]; Relative Humidity 24.8%, hydrochloride dihydrate): 4.49% | Change In Mass (%) ([1]; Relative Humidity 27.9%, hydrochloride dihydrate): 4.57% | Change In Mass (%) ([1]; Relative Humidity 31.0%, hydrochloride dihydrate): 4.65% | Change In Mass (%) ([1]; Relative Humidity 34.1%, hydrochloride dihydrate): 4.71% | Change In Mass (%) ([1]; Relative Humidity 37.2%, hydrochloride dihydrate): 4.77% | Change In Mass (%) ([1]; Relative Humidity 40.3%, hydrochloride dihydrate): 4.82% | Change In Mass (%) ([1]; Relative Humidity 43.5%, hydrochloride dihydrate): 4.86% | Change In Mass (%) ([1]; Relative Humidity 46.6%, hydrochloride dihydrate): 4.91% | Change In Mass (%) ([1]; Relative Humidity 49.7%, hydrochloride dihydrate): 4.95% | Change In Mass (%) ([1]; Relative Humidity 52.8%, hydrochloride dihydrate): 5.01% | Change In Mass (%) ([1]; Relative Humidity 55.9%, hydrochloride dihydrate): 5.07% | Change In Mass (%) ([1]; Relative Humidity 59.0%, hydrochloride dihydrate): 5.13% | Change In Mass (%) ([1]; Relative Humidity 62.1%, hydrochloride dihydrate): 5.19% | Change In Mass (%) ([1]; Relative Humidity 65.2%, hydrochloride dihydrate): 5.25% | Change In Mass (%) ([1]; Relative Humidity 68.3%, hydrochloride dihydrate): 5.31% | Change In Mass (%) ([1]; Relative Humidity 71.4%, hydrochloride dihydrate): 5.38% | Change In Mass (%) ([1]; Relative Humidity 74.5%, hydrochloride dihydrate): 5.46% | Change In Mass (%) ([1]; Relative Humidity 77.6%, hydrochloride dihydrate): 5.52% | Change In Mass (%) ([1]; Relative Humidity 80.7%, hydrochloride dihydrate): 5.58% | Change In Mass (%) ([1]; Relative Humidity 83.8%, hydrochloride dihydrate): 5.66% | Change In Mass (%) ([1]; Relative Humidity 86.9%, hydrochloride dihydrate): 5.75% | Change In Mass (%) ([1]; Relative Humidity 90.0%, hydrochloride dihydrate): 5.85% | RH at which the two moles of water lost on desorption are re-adsorbed ([1]; after a desorption cycle): 30% | change in mass ([1]; at about 55% RH): about 5% | hygroscopicity (in words) ([1]; hydrochloride dihydrate): non hygroscopic

COc1cccc2c1C(=O)c1c(O)c3c(c(O)c1C2=O)C[C@@](O)(C(=O)CO)C[C@@H]3O[C@H]1C[C@H](N2CCO[C@H](OC)C2)[C@H](O)[C@H](C)O1 [nemorubicin, 3′ des amino-3′ [2(S)methoxy-4-morpholinyl] doxorubicin]
cytotoxic activity in vitro [2]: increased | survival time (best result) [3]: doubling of survival time | optimal i.v. dose, fold less than that of doxorubicin ([4]; i.v., in vivo): at least 80 fold | oral doses giving antitumor activity comparable to i.v., fold higher than the effective i.v. doses ([4]; oral vs i.v., all the animal models examined): 1.3-2 fold | cross-resistance [5]: no cross-resistance was observed
